Where a name gives a salt, the structure may show the parent alone.
Tests used:
human LAT-1 [1] = target: T1, human LAT-1 (Homo sapiens (Human), UniProt Q01650); experiment: Inhibition of [14C]L-leucine uptake into human LAT-1 stably expressing HEK293 cell line (uptake buffer, 1 min); assay type: cell-based; settings: HEK293 human LAT-1 stably expressing cells; Na+-free HBSS pH7.4; [14C]L-leucine or alanine 1 μM, uptake 1 min; read-out: LAT-1 inhibitory activity/IC50
Text: (§1) 1) LAT-1 Inhibitory Activity and LAT-2 Inhibitory Activity Inhibitory Effect on Uptake of Amino Acid into Human LAT-1 Stably Expressing Cell Line and LAT-2 Stably Expressing Cell Line
(§2) Expression vector each expressing a gene was inserted using Lipofectamine 2000 (Invitrogen) to cultured cell line HEK293 cell derived from human fetus renal cell. The resistant strains were selected using G418, and among them, the strains showing human LAT-1- or LAT-2-specific uptake of amino acid were established as stably expressing cell lines, respectively.
(§3) The above-mentioned stably expressing cells were plated on a 24-well collagen plate at 1.2×10^5 cells/well, and, after 48 hr, the cells were washed (×3) with uptake buffer ([…] Hank's balanced salt solution (HBSS) pH7.4) kept at 37° C. Each test compound (0.1, 1, 3, 10, 30, 100, 300 and 1000 μM) was added thereto, and the mixture was kept at 37° C. for 3 min. [^14C]L-leucine or alanine (1 μM) was added thereto, and [^14C]L-leucine or alanine (1 μM) was uptaken for 1 min. The mixture was washed with ice-cold uptake buffer (×3). Then, the cells were dissolved in 0.1M NaOH aqueous solution (500 μL), and the protein concentration was measured using the 20 μL of the solution. The uptaken radioactivity was measured using the remaining solution. The measured results were corrected with the protein concentration. The results were evaluated as inhibitory capacity 50%, i.e., IC50, which corresponds to the concentration inhibiting 50% of the cellular uptake of amino acid.

human LAT-2 = human LAT-2 (Homo sapiens (Human), UniProt Q9UHI5); experiment: Inhibition of [14C] amino acid uptake into human LAT-2 stably expressing HEK293 cell line (uptake buffer, 1 min); assay type: cell-based; settings: HEK293 human LAT-2 stably expressing cells; Na+-free HBSS pH7.4; [14C]L-leucine or alanine 1 μM, uptake 1 min; read-out: LAT-2 inhibitory activity/IC50
Text: as §1, §2, §3

[2] = tested on: subcutaneous tumor derived from human pancreatic cancer cell line MIAPaCa-2; experiment: Enlargement inhibitory effect on subcutaneous tumor derived from MIAPaCa-2 in nude mice; assay type: in vivo, nude mice (BALB/cAJc1-nu); settings: 1 mg/kg orally once a day for 7 days; female nude mice; tumor volume after 15 to 21 days vs control group
Procedure: Experimental Example 2 Biological Activity Evaluation Test Enlargement Inhibitory Effect on Subcutaneous Tumor Derived from Human Pancreatic Cancer Cell Line MIAPaCa-2 in Nude Mice
Tumor tissue (0.1 g) derived from MIAPaCa-2 cell was subcutaneously transplanted into female nude mice (6-week old, BALB/cAJc1-nu), which the tumor tissue was formed in different nude mice in advance. 5% MC suspension was prepared from saline and each test compound (1 mg/kg), and it was orally-administered once a day for 7 days from 2 days after transplant. The time-dependent change of the tumor volume was measured by measuring (major axis×minor axis×minor axis)/2 of the tumor volume (weight) according to the method in Sawa, Jun Wu, Takaaki Akaike, and Hiroshi Maeda (2000) Cancer research 60, 666-671.
The tumor volume after 15 to 21 days administration of compound administration group was compared with those of control group, and the tumor growth inhibitory ratio was calculated. The anti-tumor action was evaluated as tumor growth inhibitory ratio.

MIAPaCa-2 cells = experiment: Growth inhibitory effect on human pancreatic cancer cell line MIAPaCa-2 (Trypan-Blue method); assay type: cell-based; settings: MIA PaCa-2, 0.2% DMSO, counted every 24 hr for 5 days
Procedure: 2) Growth Inhibitory Effect on Human Pancreatic Cancer Cell Line MIAPaCa-2
MIAPaCa-2 cells were plated on a 12-well plate at 2000 cells/well, and cultured for 48 hr without addition of test compound. 48 hr after the beginning of the culture, each test compound (0.03, 0.1, 0.3, 1, 3, 6, 10, 30, 100 μM) was added thereto in the presence of 0.2% DMSO. The cells were counted every 24 hr for 5 days, and the inhibitory effect on the MIAPaCa-2 cell growth was observed by Trypan-Blue method. The results were evaluated as inhibitory capacity 50%, i.e., IC50, which corresponds to the concentration inhibiting 50% of the cell growth inhibitory activity.

human LAT-1 [3] = target: T1, human LAT-1; experiment: Inhibition of [14C]L-leucine uptake into human LAT-1 stably expressing cells in culture solution (MEM medium, 120 min); assay type: cell-based; settings: MEM medium containing non-essential amino acid, [14C]L-leucine uptake 120 min, read-out: LAT-1 inhibitory activity/IC50
Procedure: The above-mentioned human LAT-1 stably expressing cells were plated on a 24-well collagen plate at 1.2×10^5 cells/well, and, after 48 hr, the cells were washed (×3) with new culture solution (MEM medium (containing non-essential amino acid)) kept at 37° C. Each test compound (0.1, 1, 3, 10 and 30 μM) was added thereto, and the mixture was kept at 37° C. for 3 min. [^14C]L-leucine was added thereto, and [^14C]L-leucine was uptaken in the culture solution for 120 min. The mixture was washed (×3) with ice-cold buffer (Na^2+-free Hank's balanced salt solution (HBSS) pH7.4). Then, the cells were dissolved in 0.1M NaOH aqueous solution (500 μL), and the protein concentration was measured using the 20 μL of the solution. The uptaken radioactivity was measured using the remaining solution. The measured results were corrected with the protein concentration. The results were evaluated as inhibitory capacity 50%, i.e., IC50, which corresponds to the concentration inhibiting 50% of the cellular uptake of amino acid.

human LAT-2, sequence (Q9UHI5 whole entry): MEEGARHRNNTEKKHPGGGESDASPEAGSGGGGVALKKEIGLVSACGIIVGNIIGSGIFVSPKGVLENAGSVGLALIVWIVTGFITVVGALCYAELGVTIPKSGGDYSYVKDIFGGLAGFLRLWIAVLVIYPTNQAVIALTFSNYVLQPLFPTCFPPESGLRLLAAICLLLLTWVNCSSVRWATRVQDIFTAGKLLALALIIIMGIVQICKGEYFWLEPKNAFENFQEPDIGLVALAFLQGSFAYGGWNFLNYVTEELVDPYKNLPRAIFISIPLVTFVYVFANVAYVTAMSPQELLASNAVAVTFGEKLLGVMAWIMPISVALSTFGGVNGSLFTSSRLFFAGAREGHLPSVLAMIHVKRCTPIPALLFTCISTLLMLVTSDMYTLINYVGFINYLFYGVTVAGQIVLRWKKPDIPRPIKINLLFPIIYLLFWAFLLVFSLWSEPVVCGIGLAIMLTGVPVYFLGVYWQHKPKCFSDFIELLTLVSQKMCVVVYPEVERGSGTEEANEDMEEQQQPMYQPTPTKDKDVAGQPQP
human LAT-2, sequence (P08195 102-630 partner): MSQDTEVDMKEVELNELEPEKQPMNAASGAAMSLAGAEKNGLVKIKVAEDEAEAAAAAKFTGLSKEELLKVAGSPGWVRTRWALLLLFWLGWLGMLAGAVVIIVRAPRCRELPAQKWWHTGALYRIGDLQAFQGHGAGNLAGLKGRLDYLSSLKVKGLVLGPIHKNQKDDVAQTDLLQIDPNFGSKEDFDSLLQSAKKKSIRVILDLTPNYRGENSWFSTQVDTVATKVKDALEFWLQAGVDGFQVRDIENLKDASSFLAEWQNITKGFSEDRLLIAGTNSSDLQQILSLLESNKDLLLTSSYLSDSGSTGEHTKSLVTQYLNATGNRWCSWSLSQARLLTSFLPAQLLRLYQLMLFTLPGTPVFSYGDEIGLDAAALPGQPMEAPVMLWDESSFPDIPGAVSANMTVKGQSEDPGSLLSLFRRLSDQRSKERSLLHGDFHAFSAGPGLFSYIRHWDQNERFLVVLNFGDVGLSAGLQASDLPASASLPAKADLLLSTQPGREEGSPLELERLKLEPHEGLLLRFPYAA
T1 sequence (Q01650 whole entry): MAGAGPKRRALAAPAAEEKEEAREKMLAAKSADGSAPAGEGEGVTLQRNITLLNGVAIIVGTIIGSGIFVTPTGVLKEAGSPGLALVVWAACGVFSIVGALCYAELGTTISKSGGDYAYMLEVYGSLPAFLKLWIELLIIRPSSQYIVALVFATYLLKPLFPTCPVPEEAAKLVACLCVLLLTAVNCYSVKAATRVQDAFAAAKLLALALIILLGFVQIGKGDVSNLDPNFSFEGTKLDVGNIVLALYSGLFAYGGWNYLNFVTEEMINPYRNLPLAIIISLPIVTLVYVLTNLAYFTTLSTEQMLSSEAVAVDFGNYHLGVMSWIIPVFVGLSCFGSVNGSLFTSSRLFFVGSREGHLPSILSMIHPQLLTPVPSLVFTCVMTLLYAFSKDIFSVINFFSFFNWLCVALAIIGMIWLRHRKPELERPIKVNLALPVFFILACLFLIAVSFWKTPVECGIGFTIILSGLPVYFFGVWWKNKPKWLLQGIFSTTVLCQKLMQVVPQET
T1 sequence (P08195 102-630 partner): as the sequence (P08195 102-630 partner) above

IC50 (human LAT-1 [1]) [µM]	IC50 (human LAT-2) [µM]	IC50 (MIAPaCa-2 cells) [µM]	IC50 (human LAT-1 [3]) [µM]	SMILES	tumor growth inhibitory ratio [2] [%]
57.5	146			NCCCCC(Oc1ccc(C(F)(F)F)cc1)c1ccccc1 (stereo not drawn) [Example 1, 5-phenyl-5-[4-(trifluoromethyl)phenoxy]pentan-1-amine]	
				NCCCCC(Oc1ccc(C(F)(F)F)cc1)c1ccccc1.O=C(O)/C=C/C(=O)O (stereo not drawn) [Example 2, 5-phenyl-5-[4-(trifluoromethyl)phenoxy]pentan-1-amine fumarate]	80.5
89.1	128			NCCCCCC(Oc1ccc(C(F)(F)F)cc1)c1ccccc1 (stereo not drawn) [Example 6, 6-phenyl-6-[4-(trifluoromethyl)phenoxy]hexan-1-amine]	
63	100			NCCCCC(Oc1ccc(C(F)(F)F)cc1)c1cccc(F)c1 (stereo not drawn) [Example 12]	
57	253			CCC(C)c1ccc(OC(CCCCN)c2ccccc2)cc1 (stereo not drawn) [Example 26]	
76	218			NCCCCC(Oc1ccc(C(F)(F)F)c(F)c1)c1ccccc1 (stereo not drawn) [Example 29]	
39.4	169			NCCCCC(Oc1ccc(OC(F)(F)F)cc1)c1ccccc1 (stereo not drawn) [Example 44]	
56.6	357			NCCCCC(Oc1ccc(C(F)(F)F)cc1)c1cccs1 (stereo not drawn) [Example 48, 5-(thiophen-2-yl)-5-[4-(trifluoromethyl)phenoxy]pentan-1-amine]	
123	313			NCCCCC(Oc1ccc(OC(F)(F)F)cc1)c1cccs1 (stereo not drawn) [Example 50]	
261	261			CCC(C)c1ccc(OC(CCCCN)c2cccs2)cc1 (stereo not drawn) [Example 51]	
146	258			NCCCCC(Oc1ccc(OC(F)(F)F)c(F)c1)c1cccs1 (stereo not drawn) [Example 53]	
177	300			NCCCCC(Oc1ccc(C(F)(F)F)c(F)c1)c1cccs1 (stereo not drawn) [Example 54]	
62.8	194	0.17		NCCCC[C@@H](Oc1ccc(C(F)(F)F)cc1)c1ccccc1 [Example 66, (R)-5-phenyl-5-[4-(trifluoromethyl)phenoxy]pentan-1-amine fumarate]	
96.2	207	4.16		NCCCC[C@H](Oc1ccc(C(F)(F)F)cc1)c1ccccc1 [Example 67, (S)-5-phenyl-5-[4-(trifluoromethyl)phenoxy]pentan-1-amine fumarate]	
36.4	156	0.43		NCCCC[C@@H](Oc1ccc(C(F)(F)F)c(F)c1)c1ccccc1.O=C(O)/C=C/C(=O)O [Example 68, (R)-5-[3-fluoro-4-(trifluoromethyl)phenoxy]-5-phenylpentan-1-amine fumarate]	84.4
69	53	0.83		NCCCC[C@H](Oc1ccc(C(F)(F)F)c(F)c1)c1ccccc1.O=C(O)/C=C/C(=O)O [Example 69, (S)-5-[3-fluoro-4-(trifluoromethyl)phenoxy]-5-phenylpentan-1-amine fumarate]	85.5
36.6	131	0.11	10.4	NCCCC[C@@H](Oc1ccc(OC(F)(F)F)cc1)c1ccccc1.O=C(O)/C=C/C(=O)O [Example 70, (R)-5-phenyl-5-[4-(trifluoromethoxy)phenoxy]pentan-1-amine fumarate]	90.2
244	131	3.36		NCCCC[C@H](Oc1ccc(OC(F)(F)F)cc1)c1ccccc1.O=C(O)/C=C/C(=O)O [Example 71, (S)-5-phenyl-5-[4-(trifluoromethoxy)phenoxy]pentan-1-amine fumarate]	85.9
				NCCCCC(Oc1ccc(C(F)(F)F)c(F)c1)c1ccccc1.O=C(O)/C=C/C(=O)O (stereo not drawn) [Example 72]	84.4
				NCCCCC(Oc1ccc(OC(F)(F)F)cc1)c1ccccc1.O=C(O)/C=C/C(=O)O (stereo not drawn) [Example 73]	83.6

Reference: patent US9771316B2, “Phenoxyalkylamine compound” (OSAKA UNIVERSITY, priority 2013, dated 2017)
